Patent US8796228B2, “Method for neutralizing fungi using sophorolipids and antifungal sophorolipids for use therein” (Synthezyme, LLC, priority 2004, dated 2014)

What was measured:
Assay in all cases: Antifungal assay, growth inhibition by OD in 96 well plates
Format in all cases: cell-based
Conditions in all cases: 5 mg/ml sophorolipid solution, 48 hours at 30° C., OD at 400 nm vs control wells
[1] = test system: Candida albicans
Protocol: (§1) Sophorolipid solution was prepared by adding 15 mg of compound in 1 ml sucrose solution, pH 8.5.
(§2) All assay were carried out in 96 well plates using Yeast extract-Maltose medium. The logarithmic growing cultures were incubated with 5 mg/ml of sophorolipids for 48 hours at 30° C. Following incubation, the wells were measured for Optical Density (OD) at 400 nm using microtitre plate readers. Percent (%) inhibition of growth was calculated corresponding to the OD in control wells containing no sophorolipid.

[2] = test system: Candida antartica
Protocol: as §1, §2

[3] = test system: Candida tropicalis
Protocol: as §1, §2

Compound	Inhibition % [1] [%]	Inhibition % [2] [%]	Inhibition % [3] [%]
CCCCCCOC(=O)CCCCCCC/C=C\CCCCCCC(C)O[C@@H]1O[C@H](CO)[C@@H](O)[C@H](O)[C@H]1O[C@@H]1O[C@H](CO)[C@@H](O)[C@H](O)[C@H]1O (relative stereo) [Hexyl SL, Hexyl 17-L-[(2′-O-β-D-glucopyranosyl-β-D-glucopyranosyl)-oxy]-cis-9-octadecenoate]	38	100	100
CCOC(=O)CCCCCCC/C=C\CCCCCCC(C)O[C@@H]1O[C@H](CO)[C@@H](O)[C@H](O)[C@H]1O[C@@H]1O[C@H](CO)[C@@H](O)[C@H](O)[C@H]1O (relative stereo) [SL - Ethyl Ester, Ethyl 17-L-([2′-O-β-D-glucopyranosyl-β-D-glucopyranosyl]-oxy)-cis-9-octadecenoate]	20	28	35
COC(=O)CCCCCCC/C=C\CCCCCC[C@H](C)O[C@@H]1O[C@H](CO)[C@@H](O)[C@H](O)[C@H]1O[C@@H]1O[C@H](CO)[C@@H](O)[C@H](O)[C@H]1O (relative stereo) [SL - Methyl Ester, Methyl 17-L-([2′-O-β-D-glucopyranosyl-β-D-glucopyranosyl]-oxy)-cis-9-octadecenoate]	100	71	100
CCOC(=O)CCCCCCC/C=C\CCCCCCC(C)O[C@@H]1O[C@H](COC(C)=O)[C@@H](O)[C@H](O)[C@H]1O[C@@H]1O[C@H](COC(C)=O)[C@@H](O)[C@H](O)[C@H]1O (relative stereo) [SL Ethyl Ester Diacetate, Ethyl 17-L-([2′-O-β-D-glucopyranosyl-β-D-glucopyranosyl]-oxy)-cis-9-octadecenoate 6′,6″-diacetate]	100	100	100
CCOC(=O)CCCCCCC/C=C\CCCCCC[C@H](C)O[C@@H]1O[C@H](CO)[C@@H](O)[C@H](O)[C@H]1O[C@@H]1O[C@H](COC(C)=O)[C@@H](O)[C@H](O)[C@H]1O (relative stereo) [SL Ethyl Ester Monoacetate, Ethyl 17-L-[(2′-O-β-D-glucopyranosyl-β-D-glucopyranosyl)-oxy]-cis-9-octadecenoate-6″-acetate]	100	42	35
